Source: article PMC11222350, “Preclinical evaluation of [^18F]FP-CIT, the radiotracer targeting dopamine transporter for diagnosing Parkinson’s disease: pharmacokinetic and efficacy analysis” (EJNMMI Research, 2024)

What was measured:
[1] = Biodistribution and pharmacokinetic constants of [^18F]FP-CIT in normal mice; assay type: in vivo, C57BL/6 mice; conditions: for AUC / CL / Cmax / T1/2 / Tmax: normal mice (group I), 3.7 MBq i.v.
Experimental: Male C57BL/6 mice (group I) were anesthetized with 2% isoflurane in oxygen, and 3.7 MBq of [^18F]FP-CIT was intravenously injected via the tail vein. Mice were sacrificed at different time points (1, 5, 10, 30, 60, and 120 min after injection, n = 4 each), and the tissues of interest (blood, muscle, heart, lung, liver, spleen, stomach, intestine, kidney, bone, cerebellum, striatum, and remaining brain tissues) were harvested, weighed, and measured for radioactivity using a gamma counter (Wizard 1480; PerkinElmer, Waltham, MA, USA). The uptake in each tissue sample was expressed as a percentage of the injected dose per gram (%ID/g). The pharmacokinetic constants of [^18F]FP-CIT in normal C57BL/6 mice were calculated from the %ID/g results of its biodistribution.

dopamine transporter [2] = target: T1, dopamine transporter (Rattus norvegicus, UniProt P23977); assay: Correlation between [^18F]FP-CIT PET uptake and tyrosine hydroxylase IHC; assay type: in vivo, Sprague–Dawley rats; conditions: Pearson
T1 construct: animal PET/CT imaging of [^18F]FP-CIT was performed in the same week following the behavioral tests on the group IV 6-OHDA PD model; from tissue; host or cells: striatum of living Sprague-Dawley rats (in vivo PET/CT)
T1 sequence (P23977 whole entry): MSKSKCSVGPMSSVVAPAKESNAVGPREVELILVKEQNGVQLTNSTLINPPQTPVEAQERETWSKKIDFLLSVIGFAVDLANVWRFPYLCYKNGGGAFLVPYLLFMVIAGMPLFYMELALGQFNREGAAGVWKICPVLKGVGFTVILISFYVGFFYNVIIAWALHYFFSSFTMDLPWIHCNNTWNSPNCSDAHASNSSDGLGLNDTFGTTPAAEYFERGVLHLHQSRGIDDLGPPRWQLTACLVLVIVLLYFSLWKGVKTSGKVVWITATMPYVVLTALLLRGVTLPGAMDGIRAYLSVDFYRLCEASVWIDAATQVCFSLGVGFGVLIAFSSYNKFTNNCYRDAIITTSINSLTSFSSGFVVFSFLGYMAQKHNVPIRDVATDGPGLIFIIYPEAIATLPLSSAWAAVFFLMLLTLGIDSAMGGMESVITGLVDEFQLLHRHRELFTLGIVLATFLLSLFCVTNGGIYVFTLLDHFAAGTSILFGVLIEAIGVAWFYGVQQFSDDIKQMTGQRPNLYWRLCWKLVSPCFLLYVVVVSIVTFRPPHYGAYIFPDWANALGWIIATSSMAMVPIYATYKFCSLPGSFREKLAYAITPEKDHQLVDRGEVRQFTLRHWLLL
Experimental: After MR and PET/CT studies, group IV rats were anesthetized with 3.5% isoflurane and fixed by intracardial perfusion with 0.9% saline, followed by 4% paraformaldehyde, replacing the blood in the brain. The brains were extracted and post-fixed in 4% paraformaldehyde overnight at 4 °C. Subsequently, the samples were transferred to 30% sucrose at 4 °C until they sank to the bottom. Cryoprotected brains were embedded in optimal cutting temperature compound (Tissue-Tek; Sakura, Torrance, CA, USA) and sectioned in the coronal plane using a microtome (CM1950; Leica, Wetzlar, Germany) at a thickness of 30 μm. Free-floating brain sections were rinsed with PBS, treated with 3% hydrogen peroxide for 30 min, and then washed with PBS again. Sections were permeabilized with 0.3% Trioton-X-100 for 30 min and washed with PBS. […]
IHC slide imaging was performed using a slide scanner (MoticEasyScan Pro 6; Motic, Kowloon, Hong Kong). The intensity of TH antibody binding was quantified by delineating regions of interest (ROI) for positive lesion and intact sites on the IHC images using ImageJ software. An average of four slides for each brain sample was analyzed. […]
The correlation between [^18F]FP-CIT uptake and TH intensity was assessed, considering absolute values for each lesion and intact site in the striatum. Additionally, lesion/intact ratio values for each study were calculated and analyzed. […]

dopamine transporter [3] = conditions: PET scanning; cited from earlier work
[4] = 1 min post-injection (highest uptake), normal mice

COC(=O)[C@H]1[C@@H](c2ccc(I)cc2)C[C@@H]2CC[C@H]1N2CCCF [[^18F]FP-CIT, N-(3-fluoropropyl)-2β-carboxymethoxy-3β-(4-iodophenyl) nortropane]
uptake in cerebellum [1, 4]: 21.42 ± 12.19 %ID/g | uptake in striatum [1, 4]: 23.50 ± 12.46 %ID/g | uptake in the rest of the brain [1, 4]: 20.06 ± 12.12 %ID/g | uptake in the liver ([1]; 60 min after injection (highest uptake), normal mice): 30.82 ± 1.64 %ID/g | AUC ([1]; blood): 95.43 ± 4.34 %ID*min/g | CL ([1]; blood): 1.05 ± 0.05 cc/min | Cmax ([1]; blood): 2.68 ± 0.12 %ID/g | T1/2 ([1]; blood): 11.12 ± 1.83 min | Tmax ([1]; blood): 1.00 ± 0.00 min | AUC ([1]; bone): 636.73 ± 25.74 %ID*min/g | CL ([1]; bone): 0.16 ± 0.01 cc/min | Cmax ([1]; bone): 9.55 ± 1.48 %ID/g | T1/2 ([1]; bone): 114.55 ± 23.62 min | Tmax ([1]; bone): 120.00 ± 0.00 min | time of maximum concentration ([1]; brain, normal mice): 1 min | AUC ([1]; cerebellum): 174.48 ± 20.00 %ID*min/g | CL ([1]; cerebellum): 0.58 ± 0.07 cc/min | Cmax ([1]; cerebellum): 10.97 ± 9.59 %ID/g | T1/2 ([1]; cerebellum): 17.30 ± 17.89 min | Tmax ([1]; cerebellum): 1.00 ± 0.00 min | AUC ([1]; heart): 180.65 ± 13.75 %ID*min/g | CL ([1]; heart): 0.56 ± 0.04 cc/min | Cmax ([1]; heart): 7.71 ± 0.74 %ID/g | T1/2 ([1]; heart): 62.29 ± 4.86 min | Tmax ([1]; heart): 1.00 ± 0.00 min | AUC ([1]; intestine): 614.35 ± 28.65 %ID*min/g | CL ([1]; intestine): 0.16 ± 0.01 cc/min | Cmax ([1]; intestine): 6.00 ± 0.47 %ID/g | T1/2 ([1]; intestine): 497.98 ± 350.19 min | Tmax ([1]; intestine): 19.00 ± 27.58 min | AUC ([1]; kidney): 680.50 ± 45.28 %ID*min/g | CL ([1]; kidney): 0.15 ± 0.01 cc/min | Cmax ([1]; kidney): 31.96 ± 5.10 %ID/g | T1/2 ([1]; kidney): 89.82 ± 11.39 min | Tmax ([1]; kidney): 1.00 ± 0.00 min | AUC ([1]; liver): 3095.50 ± 181.39 %ID*min/g | CL ([1]; liver): 0.03 ± 0.00 cc/min | T1/2 ([1]; liver): 26.50 ± 4.4 min | Tmax ([1]; liver): 4.00 ± 2.00 min | AUC ([1]; lung): 408.70 ± 65.06 %ID*min/g | CL ([1]; lung): 0.25 ± 0.04 cc/min | Cmax ([1]; lung): 21.31 ± 3.18 %ID/g | T1/2 ([1]; lung): 79.46 ± 10.66 min | Tmax ([1]; lung): 1.00 ± 0.00 min | uptake in the intestine ([1]; maintained for 120 min after injection, normal mice): approximately 5 %ID/g | AUC ([1]; muscle): 150.08 ± 13.03 %ID*min/g | CL ([1]; muscle): 0.67 ± 0.06 cc/min | Cmax ([1]; muscle): 2.42 ± 0.98 %ID/g | T1/2 ([1]; muscle): 137.84 ± 198.01 min | Tmax ([1]; muscle): 5.00 ± 0.00 min | AUC ([1]; rest of the brain): 244.03 ± 34.63 %ID*min/g | CL ([1]; rest of the brain): 0.42 ± 0.06 cc/min | Cmax ([1]; rest of the brain): 17.19 ± 16.17 %ID/g | T1/2 ([1]; rest of the brain): 55.64 ± 29.71 min | Tmax ([1]; rest of the brain): 1.00 ± 0.00 min | AUC ([1]; spleen): 288.90 ± 39.35 %ID*min/g | CL ([1]; spleen): 0.35 ± 0.05 cc/min | Cmax ([1]; spleen): 14.52 ± 1.35 %ID/g | T1/2 ([1]; spleen): 81.36 ± 16.91 min | Tmax ([1]; spleen): 3.00 ± 2.31 min | AUC ([1]; stomach): 444.70 ± 47.17 %ID*min/g | CL ([1]; stomach): 0.23 ± 0.02 cc/min | Cmax ([1]; stomach): 7.14 ± 1.99 %ID/g | T1/2 ([1]; stomach): 177.39 ± 36.93 min | Tmax ([1]; stomach): 7.50 ± 2.89 min | AUC ([1]; striatum): 223.30 ± 37.82 %ID*min/g | CL ([1]; striatum): 0.46 ± 0.08 cc/min | T1/2 ([1]; striatum): 39.62 ± 18.71 min | Tmax ([1]; striatum): 1.00 ± 0.00 min | correlation coefficient (R) between animal PET/CT uptake and TH intensity by IHC, absolute values (dopamine transporter [2]; each lesion and intact site in the striatum, n = 12): 0.803 | correlation coefficient (R) between animal PET/CT uptake and TH intensity by IHC, lesion/intact ratio values (dopamine transporter [2]; n = 6): 0.973 | time of transient equilibrium in time activity curves (specific binding to the striatum) (dopamine transporter [3]): 60 to 100 min
